For one experiment, the system named is H3255 (lung). Put plainly: Cell survival assay, H3255. It is filed as cell-based, human. The protocol: (§1) For Skp2 inhibitor administration, 5-10×10^3 of cells with were seeded in 12 wells in triplicate, 24 h later, treated with compound #25 (refreshed every two days). Four days later, cells were harvested, stained with trypan blue, and viable cells were counted directly under the microscope using hemocytometer. For doxorubicin treatment, 8×10^3 of PC3 cells with were seeded in 12 wells in triplicate, 24 h later, treated with various dose of compound #25 in the presence or absence of 10 nM doxorubicin or 25 ng/ml cyclophosphamide for four and three days, respectively (refreshed every two days). After treatment, cells were harvested, stained with trypan blue, and viable cells were counted directly under the microscope using hemocytometer. Cellular senescence was determined by assessing SA-b-gal activity using senescence detection kit according to manufacturers' standard procedures (Calbiochem).

The next experiment addresses T1, Skp2 Trp127Ala mutant (Homo sapiens, UniProt Q13309, W127A).
T1 construct: expressed in transfected cells; host or cells: 293T
Put plainly: In vivo p27 ubiquitination assay, Skp2 Trp127Ala mutant. The experiment is classed as cell-based. The protocol: (§2) In vivo and in vitro ubiquitination assays were performed as described with modification (Lin et al., 2009; Yang et al., 2009). For in vitro ubiquitination assay, recombinant GST-Akt proteins were expressed, purified and eluted from the bacterial lysates of BL21 competent cells. Flag-Skp2 SCF complex were expressed in 293T cells, immunoprecipitated by anti-Flag antibody, and eluted from Protein A/G beads using Flag peptides according to manufacturers' standard procedures. Purified GST-Akt and Flag-SCF proteins were incubated for 3 h at 37° C. in the absence and presence of Skp2 inhibitor. After incubation, protein mixtures were diluted in E1A Buffer and the supernatant fluid was precleared with Protein A/G beads for 1 h, and immunoprecipitated overnight with anti-Flag antibody, after which Protein A/G beads were added for an additional 1 h. Beads were washed 4 times with E1A Buffer. Proteins were eluted in SDS-sample buffer and subjected to immunoblotting analysis. For in vivo ubiquitination assay, 293T cells were transfected with the indicated plasmids and cultured in the absence or presence of Skp2 inhibitor for 48 h. 6 h before harvest, cells were cultured in the presence of MG132. After cell harvest, cells were lysed by the denatured buffer (6M guanidine-HCl, 0.1M Na2HPO4/NaH2PO4, 10 mM imidazole). […]

The subject of experiment [1] is Skp2 Trp97Ala and Asp98Ala mutants. Put plainly: In vivo p27 ubiquitination assay, Skp2 Trp97Ala and Asp98Ala mutants. The experiment is classed as cell-based. On the procedure: as §2
Another experiment concerns prostate cancer cells. Put plainly: Cell survival assay in combination with Dox or CPA. The experiment is classed as cell-based. Particulars: combination with doxorubicin or cyclophosphamide. On the procedure:
as §1

The subject of experiment [2] is Skp2 Trp97Ala and Asp98Ala mutants binding to Skp1. Put plainly: In vitro Skp2-Skp1 binding assay with Skp2 mutants. Particulars: FIG. 2D. On the procedure:
(§3) For in vitro GST-Skp1 and Skp2 interaction, GST-Skp1 proteins purified from the bacterial lysates of BL21 competent cells transformed with pGEX-4X1-Skp1 using the Glutathione-Agarose beads according to the manufacturer's standard procedures. The GST-Skp1 proteins bound to glutathione Sepharose beads (Amersham Biosciences) were then incubated with the in vitro translated [35^S]-Skp2 for 2 hours at 4° C. in the interaction buffer with or without compound #25 (20 mM HEPES, PH 7.9, 150 mM KCl. 5 mM EDTA, 0.5 mM DTT, 0.1% (v/v) Nonidet p-40, 0.1% (w/v) BSA, 1 mM PMSF, and 10% Glycerol), washed by the NETN buffer (20 mM Tris, pH 8.0, 100 mM NaCl, 6 mM MgCl2, 1 mM EDTA, 0.5% Nonidet P-40, 1 mM DTT, 8% glycerol, 1 mM PMSF) 4 times, and subjected to 8% SDS-PAGE, followed by autoradiography.

The test system of experiment [3] is p27 and p21 protein expression. Put plainly: Immunoblotting of SCF substrates in prostate cancer cells. It is filed as cell-based. From the text:
Cells were lysed with RIPA buffer in the presence of protease inhibitor cocktail (Roche). The following antibodies were used for immunoblotting analysis: anti-Skp2 (Invitrogen), anti-Xpress (Invitrogen), anti-p27 (BD transduction laboratories), anti-p21 (Santa Cruz), anti-β-actin (Sigma), anti-α-tubulin (Sigma), anti-phospho-Akt (Thr308) (Cell Signaling), anti-phospho-Akt (Ser473) (Cell Signaling), and anti-HA (Convance). For immunohistochemistry, tissues were fixed in 10% formalin and embedded in paraffin in accordance with standard procedures. Sections were stained with anti-Skp2 (Invitrogen), anti-p27 (Epitomics), anti-phosphoAkt (SerS473) (Cell signaling), anti-Glut1 (Abcam), and anti-Ki67 (Abcam). TUNEL staining was performed by using in situ cell death detection kit-POD (Roche).
Background: Immunoblotting shows a protein as a band on a membrane.

The target of experiment [4] is T2, Skp1/Skp2 binding interaction (Homo sapiens, UniProt Q13309).
T2 construct: made in house; host or cells: GST-Skp1: E. coli BL21; Skp2: in vitro translation
Put plainly: In vitro Skp2-Skp1 binding assay (GST pull-down). On the procedure: as §3
Below are the original lead compound and 11 similar compounds that were tested for their ability to block the Skp1/Skp2 binding interaction in an in vitro assay. The quantification was made on western blot/images, and the percentages represent the amount of intact Skp1/Skp2 remaining after treatment. In vitro binding assays were performed. For in vitro GST-Skp1 and Skp2 interaction, GST-Skp1 proteins purified from the bacterial lysates of BL21 competent cells transformed with pGEX-4X1-Skp1 using the Glutathione-Agarose beads were performed according to the manufacturer's standard procedures. The GST-Skp1 proteins bound to glutathione Sepharose beads (Amersham Biosciences) were then incubated with the in vitro translated [35^S]-Skp2 for 2 hours at 4° C. in the interaction buffer with or without lead compound and 11 similar compounds (20 mM HEPES, PH 7.9, 150 mM KCl. 5 mM EDTA, 0.5 mM DTT, 0.1% (v/v) Nonidet p-40, 0.1% (w/v) BSA, 1 mM PMSF, and 10% Glycerol), washed by the NETN buffer (20 mM Tris, pH 8.0, 100 mM NaCl, 6 mM MgCl2, 1 mM EDTA, 0.5% Nonidet P-40, 1 mM DTT, 8% glycerol, 1 mM PMSF) 4 times, and subjected to 8% SDS-PAGE, followed by autoradiography. The data presented in Table 1 below was obtained using the Skp1/Skp2 binding affinity assay. The quantification percentage results listed below are based on the western blot results.

T2 sequence (Q13309 whole entry): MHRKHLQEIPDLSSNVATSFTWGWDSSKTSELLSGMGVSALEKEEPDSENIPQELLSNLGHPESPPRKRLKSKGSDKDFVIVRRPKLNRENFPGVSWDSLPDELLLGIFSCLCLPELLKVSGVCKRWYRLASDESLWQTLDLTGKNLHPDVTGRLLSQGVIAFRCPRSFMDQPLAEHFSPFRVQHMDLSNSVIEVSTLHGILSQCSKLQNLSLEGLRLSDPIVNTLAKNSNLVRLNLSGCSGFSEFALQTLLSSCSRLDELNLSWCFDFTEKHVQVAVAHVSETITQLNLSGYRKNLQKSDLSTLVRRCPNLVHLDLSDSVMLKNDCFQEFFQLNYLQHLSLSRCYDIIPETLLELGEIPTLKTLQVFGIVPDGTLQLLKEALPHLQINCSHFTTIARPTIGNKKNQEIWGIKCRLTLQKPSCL
T1 sequence (Q13309 whole entry W127A): as the sequence (Q13309 whole entry) above, with W127A counted along it

As to `CCc1cc2c(=O)c(-c3nc4ccccc4s3)coc2c(CN2CCCCC2)c1O` [compound #25, 3-(1,3-benzothiazol-2-yl)-6-ethyl-7-hydroxy-8-(1-piperidinylmethyl)-4H-chromen-4-one], in the experiment with H3255 (lung), the cell viability result is given as “potent suppressive effect on viability”. Also, the “E3 ligase activity of Skp2 Trp127Ala mutant” value on Skp2 Trp127Ala mutant is on record as “abrogated E3 ligase activity”. For the same compound, the “E3 ligase activity of Skp2 Trp97Ala and Asp98Ala mutants” value in experiment [1] is given as “failed to inhibit”. Further, the “sensitization to Dox and CPA” value with prostate cancer cells was “increased the efficacy of Dox and CPA”. Further, the “binding of Skp2 Trp97Ala and Asp98Ala mutants to Skp1” value in experiment [2] is “unable to inhibit”. In experiment [3] (Skp2, Fbw7 and β-TrCP substrates, FIGS. 3E and 11A), the “stabilization/induction of SCF substrates” value is listed as “selectively stabilized Skp2 substrates”. Further, in experiment [3] (prostate cancer cells), the “endogenous p27 and p21 protein expression” value was “induced endogenous p27 and p21 protein expression”. Also, in experiment [4] (5 μM), the “disruption of Skp2-Skp1 interaction” value is on record as “completely disrupt Skp2-Skp1 interaction”. Besides, the “interaction between WT Skp2 and Skp1” value in experiment [4] (WT Skp2, FIG. 2D) is “prevented the interaction between WT Skp2 and Skp1”. For the same compound, the “Normalized w/ vehicle treatment” value in experiment [4] (amount of intact Skp1/Skp2 remaining after treatment, quantified on western blot/images) is given as 10%.

(Values after patent publication US9624211B2, “Anti-cancer compounds” (Board of Regents, The University of Texas System, priority 2013, dated 2017).)
